The source of these data is patent US20250186321A1, “FORMULATION USING AMINO ACID AND CARBOXYLIC ACID, ORGANIC SALT, AND COMPOSITION COMPRISING SAME AND USE THEREOF” (MIYOSHI OIL & FAT CO., LTD., priority 2021, published 2025).

SMILES strings stand for the structures.

What all share (format): physicochemical
Data set [1] in a line: Appearance of formulation (state at 25° C.). As to the method:
Formulations 1 to 427 shown in Tables 1A to 1D were prepared by the above-described method using the components (A) and (B) at the compounding molar ratios shown in the tables, and their states at 25° C. were observed.

Data set [2] can be described thus: Water retention evaluation (moisture reduction rate). The note with it: for Moisture eduction rate / Moisture content before test (A): 80 wt. % aqueous solution; for Moisture eduction rate: 24 hours at 35° C. and 25% RH, calculated from A and B; for Moisture content before test (A): Karl Fischer; for Presence or absence of hydrates: left until the moisture content remained unchanged, based on final moisture content; for n-hydrate: number of hydrated water based on final moisture content. The protocol: 80 wt. % aqueous solutions of the formulations (organic salts) of the working examples 428 to 459 and comparative examples 1 to 5 in Tables 2A and 2B were prepared, and the water contents were measured using a Karl Fischer moisture meter (CA-200 manufactured by Mitsubishi Chemical Analytech Co., Ltd.). It was confirmed that the water contents of them were 20.0 wt. % (moisture content before test: A). Each of the 1.0 g samples was added to a screw tube, and left uncovered to stand still for 24 hours in a constant temperature and humidity bath (KCL-2000W manufactured by Tokyo Rikakikai Co., Ltd.) which was set at 35° C. and 25% RH. Moisture contents after being left for 24 hours were measured again (moisture content after test: B) to evaluate their water retention property by using the following formula for calculating the moisture reduction rates. After that, it was left to stand still until the moisture content remained unchanged, and determinations of the hydrate and the number of hydrated water were made based on the final moisture contents. • Moisture content before test: A (%) • Moisture content after test: B (%)

The nature of data set [3]: Appearance of formulation (state at 25° C.). To be noted: Tables 2A/2B; formulation at the compounding molar ratio listed.
[4] abbreviates: 25° C., components (A) and (B) at the compounding molar ratio shown.
Where [5] appears, read: Tables 1C-1 to 1D, compounding molar ratio (Component (A):Component (B)) 1:1.

With `CCCCCC(=O)O.NCCCC[C@H](N)C(=O)O` [Formulation 4], in data set [1] (setting [4]), the “state at 25° C.” value is “Solid”. Besides, in data set [2], the Moisture eduction rate is recorded as 60.2%, the “Moisture content before test (A)” value is 20.0% and the “Presence or absence of hydrates” value was “Absent”. Further, the “state at 25° C.” value in data set [3] was “Solid”.
Take `NCCCC[C@H](N)C(=O)O.O=C(O)[C@H](O)[C@@H](O)[C@H](O)[C@H](O)CO` [Formulation 9]: in data set [1] (setting [4]), the “state at 25° C.” value is given as “Liquid”. For the same molecule, the “state at 25° C.” value in data set [1] (25° C., components (A) and (B) at the compounding molar ratio shown, listed as Working example 9) is listed as “liquid”. In addition, in data set [2], the Moisture eduction rate is 22.9%, the “Moisture content before test (A)” value stood at 20.0%, the “Presence or absence of hydrates” value is “Present” and the n-hydrate entry is listed as “Dihydrate”. In addition, in data set [3], the “state at 25° C.” value was “Liquid”.
As for `NCCCC[C@H](N)C(=O)O.O=C(O)[C@H](O)[C@@H](O)[C@H](O)[C@H](O)CO.O=C(O)[C@H](O)[C@@H](O)[C@H](O)[C@H](O)CO` [Formulation 30], the “state at 25° C.” value in data set [1] (setting [4]) is given as “Liquid”; in data set [1] (25° C., components (A) and (B) at the compounding molar ratio shown, listed as Working example 30) it was “liquid”; in data set [3], “Liquid”. The Moisture eduction rate in data set [2] is on record as 42.7%. The “Moisture content before test (A)” value in data set [2] turned out to be 20.0%. Further, the “Presence or absence of hydrates” value in data set [2] was “Present”.
`NCCCC[C@H](N)C(=O)O.NCCCC[C@H](N)C(=O)O.NCCCC[C@H](N)C(=O)O.O=C(O)CC(O)(CC(=O)O)C(=O)O.O=C(O)CC(O)(CC(=O)O)C(=O)O` [Formulation 37]: the “state at 25° C.” value in data set [1] (setting [4]) was “Liquid”. The “state at 25° C.” value in data set [1] (25° C., components (A) and (B) at the compounding molar ratio shown, listed as Working example 37) is listed as “liquid”. In addition, in data set [2], the Moisture eduction rate is reported as 22.4%, the “Moisture content before test (A)” value is reported as 20.0%, the “Presence or absence of hydrates” value was “Present” and the n-hydrate result is listed as “Dihydrate”. Also, the “state at 25° C.” value in data set [3] is given as “Liquid”.
`N=C(N)NCCC[C@H](N)C(=O)O.O=C(O)[C@H](O)[C@@H](O)[C@H](O)[C@H](O)CO` [Formulation 51]: the “state at 25° C.” value in data set [1] (setting [4]) was “Liquid”. For the same molecule, in data set [2], the Moisture eduction rate is 23.7%, the “Moisture content before test (A)” value was 20.0%, the “Presence or absence of hydrates” value is recorded as “Present” and the n-hydrate result is “Mono-”. For the same molecule, the “state at 25° C.” value in data set [3] was “Liquid”.
Take `CC(O)C(=O)O.N=C(N)NCCC[C@H](N)C(=O)O` [Formulation 52]: in data set [1] (setting [4]), the “state at 25° C.” value was “Liquid”. In data set [2], the Moisture eduction rate is on record as 24.3%, the “Moisture content before test (A)” value came to 20.0%, the “Presence or absence of hydrates” value was “Present” and the n-hydrate result was “Mono-”. In data set [3], the “state at 25° C.” value is given as “Liquid”.
For `N=C(N)NCCC[C@H](N)C(=O)O.O=C(O)CC(O)(CC(=O)O)C(=O)O` [Formulation 58], the “state at 25° C.” value in data set [1] (setting [4]) is listed as “Liquid”. For the same molecule, in data set [2], the Moisture eduction rate is recorded as 21.8%, the “Moisture content before test (A)” value stood at 20.0% and the “Presence or absence of hydrates” value is on record as “Present”. In data set [3], the “state at 25° C.” value is given as “Liquid”.
Consider `N[C@@H](Cc1c[nH]cn1)C(=O)O.O=C(O)[C@H](O)[C@@H](O)[C@H](O)[C@H](O)CO` [Formulation 93], for which, in data set [1] (setting [4]), the “state at 25° C.” value is recorded as “Liquid”. Further, in data set [1] (25° C., components (A) and (B) at the compounding molar ratio shown, listed as Working example 93), the “state at 25° C.” value is “liquid”. Also, in data set [2], the Moisture eduction rate is 20.4%, the “Moisture content before test (A)” value worked out at 20.0% and the “Presence or absence of hydrates” value is listed as “Present”. Further, in data set [3], the “state at 25° C.” value is on record as “Liquid”.
Turning to `NCC(=O)O.O=C(O)CC(O)(CC(=O)O)C(=O)O` [Formulation 142], the “state at 25° C.” value in data set [1] (setting [4]) was “Liquid”. For the same molecule, in data set [1] (25° C., components (A) and (B) at the compounding molar ratio shown, listed as Working example 142), the “state at 25° C.” value is “liquid”. In data set [2], the Moisture eduction rate was 32.2%, the “Moisture content before test (A)” value is on record as 20.0%, the “Presence or absence of hydrates” value was “Present” and the n-hydrate result is “Hemi-”. For the same molecule, in data set [3], the “state at 25° C.” value is “Liquid”.
`NCCCC(=O)O.O=C(O)[C@H](O)[C@@H](O)[C@H](O)[C@H](O)CO` [Formulation 175]: the “state at 25° C.” value in data set [1] (setting [4]) is reported as “Liquid”. Besides, the “state at 25° C.” value in data set [1] (25° C., components (A) and (B) at the compounding molar ratio shown, listed as Working example 175) was “liquid”. Also, in data set [2], the Moisture eduction rate is 36.7%, the “Moisture content before test (A)” value is listed as 20.0%, the “Presence or absence of hydrates” value is given as “Present” and the n-hydrate entry is “Mono-”. Also, the “state at 25° C.” value in data set [3] is “Liquid”.
As for `N[C@@H](CC(=O)O)C(=O)O.O=C(O)CCC(=O)O` [Formulation 402], in data set [1] (setting [5]), the “state at 25° C.” value is on record as “Solid”.
For the molecule `N[C@@H](CC(=O)O)C(=O)O.N[C@@H](CCC(=O)O)C(=O)O` [Formulation 403], the “state at 25° C.” value in data set [1] (setting [5]) was “Solid”.
In the case of `N[C@@H](CC(=O)O)C(=O)O.O=C(O)/C=C/C(=O)O` [Formulation 404], in data set [1] (setting [5]), the “state at 25° C.” value is “Solid”.
With `NC(CC(=O)O)C(=O)O.O=C(O)CC(O)C(=O)O` (stereo not shown) [Formulation 405], in data set [1] (setting [5]), the “state at 25° C.” value was “Solid”.
For the molecule `N[C@@H](CC(=O)O)C(=O)O.O=C(O)CC(O)(CC(=O)O)C(=O)O` [Formulation 406], the “state at 25° C.” value in data set [1] (setting [5]) is “Solid”.
The same measure, in the same setting: the value for `N[C@@H](CC(=O)O)C(=O)O.O=C(O)C(O)C(O)C(=O)O` (stereo not shown) [Formulation 407] was “Solid”; that for `N[C@@H](CC(=O)O)C(=O)O.O=C(O)c1ccccc1` [Formulation 408] was “Solid”; that for `N[C@@H](CC(=O)O)C(=O)O.O=C1O[C@H]([C@@H](O)CO)C(O)=C1O` [Formulation 409] was “Solid”.
As for `N[C@@H](CC(=O)O)C(=O)O.O=C1O[C@H]([C@H](O)CO)C(O)=C1O` [Formulation 410], the “state at 25° C.” value in data set [1] (setting [5]) is on record as “Solid”.
`N[C@@H](CCC(=O)O)C(=O)O.O=CO` [Formulation 411]: the “state at 25° C.” value in data set [1] (setting [5]) is recorded as “Solid”.
The same measure, in the same setting: the value for `CC(=O)O.N[C@@H](CCC(=O)O)C(=O)O` [Formulation 412] was “Solid”; that for `CCC(=O)O.N[C@@H](CCC(=O)O)C(=O)O` [Formulation 413] was “Solid”; that for `CCCCCC(=O)O.N[C@@H](CCC(=O)O)C(=O)O` [Formulation 414] was “Solid”.
As to `CCCC(=O)O.N[C@@H](CCC(=O)O)C(=O)O` [Formulation 415], the “state at 25° C.” value in data set [1] (setting [5]) is “Solid”.
As to `N[C@@H](CCC(=O)O)C(=O)O.O=C(O)C(O)C(O)C(O)C(O)CO` (stereo not shown) [Formulation 416], the “state at 25° C.” value in data set [1] (setting [5]) is recorded as “Solid”.
As to `CC(O)C(=O)O.N[C@@H](CCC(=O)O)C(=O)O` [Formulation 417], the “state at 25° C.” value in data set [1] (setting [5]) is “Solid”.
Consider `N[C@@H](CCC(=O)O)C(=O)O.O=C(O)CCCCC(=O)O` [Formulation 418], for which, in data set [1] (setting [5]), the “state at 25° C.” value was “Solid”.
Take `N[C@@H](CCC(=O)O)C(=O)O.O=C(O)CCC(=O)O` [Formulation 419]: the “state at 25° C.” value in data set [1] (setting [5]) is reported as “Solid”.
Regarding `N[C@@H](CCC(=O)O)C(=O)O.N[C@@H](CCC(=O)O)C(=O)O` [Formulation 420], the “state at 25° C.” value in data set [1] (setting [5]) is “Solid”.
In the case of `N[C@@H](CCC(=O)O)C(=O)O.O=C(O)/C=C/C(=O)O` [Formulation 421], in data set [1] (setting [5]), the “state at 25° C.” value is listed as “Solid”.
Regarding `NC(CCC(=O)O)C(=O)O.O=C(O)CC(O)C(=O)O` (stereo not shown) [Formulation 422], the “state at 25° C.” value in data set [1] (setting [5]) is on record as “Solid”.
Consider `N[C@@H](CCC(=O)O)C(=O)O.O=C(O)CC(O)(CC(=O)O)C(=O)O` [Formulation 423], for which the “state at 25° C.” value in data set [1] (setting [5]) is recorded as “Solid”.
Still for that read-out and setting: the value for `N[C@@H](CCC(=O)O)C(=O)O.O=C(O)C(O)C(O)C(=O)O` [Formulation 424] was “Solid”; that for `N[C@@H](CCC(=O)O)C(=O)O.O=C(O)c1ccccc1` [Formulation 425] was “Solid”.
Turning to `N[C@@H](CCC(=O)O)C(=O)O.O=C1O[C@H]([C@@H](O)CO)C(O)=C1O` [Formulation 426], the “state at 25° C.” value in data set [1] (setting [5]) is reported as “Solid”.
For the molecule `NC(CCC(=O)O)C(=O)O.O=C1OC(C(O)CO)C(O)=C1O` (stereo not shown) [Formulation 427], the “state at 25° C.” value in data set [1] (setting [5]) is recorded as “Solid”.
In the case of `Cl.NCCCC[C@H](N)C(=O)O` [Formulation 429], in data set [2], the Moisture eduction rate is on record as 68.2%, the “Moisture content before test (A)” value was 20.0% and the “Presence or absence of hydrates” value is “Absent”. For the same molecule, the “state at 25° C.” value in data set [3] is on record as “Solid”.
For `Cl.O=C(O)[C@@H]1CCCN1` [Formulation 437], the “state at 25° C.” value in data set [1] (25° C.) was “Solid”.
Regarding `O` [Formulation 438], the “state at 25° C.” value in data set [1] (25° C.) was “Liquid”.
